target: 3CL Protease (Severe acute respiratory syndrome coronavirus 2, UniProt P0DTD1); experiment: 3CL Protease enzymatic activity assay (BPS Bioscience Assay Kit #78043-1, fluorescence); type: biochemical, SARS-CoV-2; details: Table A; 30 min preincubation, 40 μM substrate, 4 hours at room temperature; read-out: IC50, nM (3CL Protease enzymatic activity)
Protocol: For determination of 3CL Protease enzymatic activity was used Assay Kit of BPS Bioscience, San Diego, CA (Catalog #78043-1).
All samples and controls should be tested in duplicate. • 1) Just before use, dilute 0.5 M DTT 500 times into the 3CL Protease Assay Buffer to obtain a DTT concentration of 1 mM. For example, add 10 μl of 0.5 M DTT to 5 ml of assay buffer. Prepare enough DTT-containing buffer as required for the assay. Store the remaining assay buffer at −20° C. • 2) Thaw the 3CL Protease on ice. Briefly spin the tube containing the enzyme to recover the full content of the tube. Note: 3CL Protease enzyme is sensitive to freeze/thaw cycles. […] Note: The exact concentration and volume of enzyme is lot-specific and will be indicated on the tube. Calculate required dilution from the information in the tube. It may be desirable to dilute the enzyme serially to avoid using large amounts of protease assay buffer for the dilution. • 4) Add 30 μl of diluted 3CL Protease to the wells designated as “Positive Control,” “Inhibitor Control,” and “Test Inhibitor.” Add 30 μl of Assay Buffer (containing 1 mM DTT) to the “Blank” wells. • 5) Dilute the 50 μg GC376 in 200 μl of Assay Buffer to obtain a 500 μM solution. Add 10 μl of GC376 (500 μM) to the wells labeled “Inhibitor Control”. Aliquot and store the remaining solution at −80° C. • 6) Prepare the Test Inhibitor. The final concentration of DMSO in the assay should not exceed 1%. If the Test Inhibitor is dissolved in DMSO, make a 100-fold higher concentration of the compound than the highest desired concentration. Then make a 20-fold dilution in 1× Assay Buffer (containing DTT). At this step the compound concentration is 5-fold higher than the final concentration. If the test inhibitor is dissolved in water, make a 5-fold higher concentration of the test compound than the final desired concentration in the Assay buffer (containing DTT). Add 10 μl of Test Inhibitor to each well designated “Test Inhibitor”. • 7) Diluent Solution (no inhibitor): add 10 μl of assay buffer (if the test compound is water soluble and was diluted in assay buffer) or 10 μl of 5% DMSO diluted in assay buffer (if DMSO was used to dissolve the test inhibitor) to “Blank” and “Positive Control” wells.
• 8) Preincubate for 30 min at room temperature with slow shaking. • 9) Dilute the 25 μl of 3CL Protease substrate (10 mM) in 1.25 ml of the Assay Buffer containing DTT, to make a […] solution. The final concentration of the 3CL Protease substrate in a 50 μl reaction is 40 μM. • 10) Start the reaction by adding 10 μl of the substrate solution to all the wells. Seal the plate with the plate sealer and incubate for 4 hours at room temperature with slow shaking. • 11) Measure the fluorescence intensity in a microtiter plate-reader fluorometer (Tecan Spark Cyto) capable of excitation at a wavelength 360 nm and detection of emission at a wavelength 460 nm. The fluorescence intensity can also be measured kinetically. The “Blank” value is subtracted from all other values. • The % inhibition was then used to calculate the IC50 values.

Q: With Cc1ccc2[nH]c(=O)c(C[C@@H](C#N)NC(=O)[C@@H]3[C@H]4[C@H](CN3C(=O)[C@@H](NC(=O)C(F)(F)F)C(C)(C)C)C4(C)C)cc2c1 [Compound 113, (1S,2S,5S)—N-[(1S)-1-cyano-2-(6-methyl-2-oxo-1H-quinolin-3-yl)ethyl]-3-[(2S)-3,3-dimethyl-2-[(2,2,2-trifluoroacetyl)amino]butanoyl]-6,6-dimethyl-3-azabicyclo[3.1.0]hexane-2-carboxamide] as the compound, how does the IC50 read?
A: < 50 nM

Q: For CC(C)(C)[C@H](NC(=O)C(F)(F)F)C(=O)N1C[C@H]2C([C@H]1C(=O)NC(C#N)Cc1cc3cc(Cl)ccc3[nH]c1=O)C2(C)C (stereo in doubt) [Compound 104, (1R,2S,5S)—N-(2-(6-Chloro-2-oxo-1,2-dihydroquinolin-3-yl)-1-cyanoethyl)-3-((S)-3,3-dimethyl-2-(2,2,2-trifluoroacetamido)butanoyl)-6,6-dimethyl-3-azabicyclo[3.1.0]hexane-2-carboxamide], which IC50 is on record?
A: 50 to 100 nM

Q: CC(C)(C)[C@H](NC(=O)C(F)(F)F)C(=O)N1C[C@H]2[C@@H]([C@H]1C(=O)N[C@H](C#N)Cc1cc3cc(F)c(F)cc3[nH]c1=O)C2(C)C [Compound 177, (1R,2S,5S)—N—((S)-1-Cyano-2-(6,7-difluoro-2-oxo-1,2-dihydroquinolin-3-yl)ethyl)-3-((S)-3,3-dimethyl-2-(2,2,2-trifluoroacetamido)butanoyl)-6,6-dimethyl-3-azabicyclo[3.1.0]hexane-2-carboxamide] was tested. Which IC50 did it give?
A: 50 to 100 nM

Q: CC(C)(C)[C@H](NS(C)(=O)=O)C(=O)N1C[C@H]2[C@@H]([C@H]1C(=O)N[C@@H](C#N)Cc1cc3cnccc3[nH]c1=O)C2(C)C [Compound 189, (1R,2S,5S)—N—((R)-1-Cyano-2-(2-oxo-1,2-dihydro-1,6-naphthyridin-3-yl)ethyl)-3-((S)-3,3-dimethyl-2-(methylsulfonamido)butanoyl)-6,6-dimethyl-3-azabicyclo[3.1.0]hexane-2-carboxamide] was tested. Which IC50 did it give?
A: ≥ 1000 nM

Q: How did the IC50 turn out when COc1cccc2oc(C(=O)N3C[C@H]4[C@@H]([C@H]3C(=O)N[C@H](C#N)Cc3cc5cc(C)ccc5[nH]c3=O)C4(C)C)cc12 [Compound 196, (1R,2S,5S)—N—((S)-1-Cyano-2-(6-methyl-2-oxo-1,2-dihydroquinolin-3-yl)ethyl)-3-(4-methoxybenzofuran-2-carbonyl)-6,6-dimethyl-3-azabicyclo[3.1.0]hexane-2-carboxamide] was run?
A: ≥ 1000 nM

Q: How did the IC50 turn out when CC(C)(C)[C@H](NC(=O)C(F)(F)F)C(=O)N1C[C@H]2[C@@H]([C@H]1C(=O)N[C@H](C#N)Cc1nc3ccccc3[nH]c1=O)C2(C)C [Compound 185, (1R,2S,5S)—N-[(1S)-1-Cyano-2-(3-oxo-4H-quinoxalin-2-yl)ethyl]-3-[(2S)-3,3-dimethyl-2-[(2,2,2-trifluoroacetyl)amino]butanoyl]-6,6-dimethyl-3-azabicyclo[3.1.0]hexane-2-carboxamide] was run?
A: < 50 nM

Q: With Cc1ccc2[nH]c(=O)c(C[C@@H](C#N)NC(=O)[C@@H]3C4[C@H](CN3C(=O)[C@@H](Nc3ccnc(C)n3)C(C)(C)C)C4(C)C)cc2c1 (stereo in doubt) [Compound 159, (1R,2S,5S)—N—((S)-1-Cyano-2-(6-methyl-2-oxo-1,2-dihydroquinolin-3-yl)ethyl)-3-((S)-3,3-dimethyl-2-((2-methylpyrimidin-4-yl)amino)butanoyl)-6,6-dimethyl-3-azabicyclo[3.1.0]hexane-2-carboxamide] as the compound, how does the IC50 read?
A: ≥ 1000 nM

Q: For Cc1ccc2[nH]c(=O)c(C[C@@H](C#N)NC(=O)C3C[C@H]4OCC[C@H]4N3C(=O)[C@@H](NC(=O)C(F)(F)F)C(C)(C)C)cc2c1 (stereo partly drawn) [Compound 198, (3aR,6aR)—N—((S)-1-Cyano-2-(6-methyl-2-oxo-1,2-dihydroquinolin-3-yl)ethyl)-4-((S)-3,3-dimethyl-2-(2,2,2-trifluoroacetamido)butanoyl)hexahydro-2H-furo[3,2-b]pyrrole-5-carboxamide], which IC50 is on record?
A: ≥ 1000 nM

Q: For Cc1ccc2[nH]c(=O)c(CC(C#N)NC(=O)[C@@H]3C4[C@H](CN3C(=O)[C@@H](Nc3ncc(C)s3)C(C)(C)C)C4(C)C)cc2c1 (stereo in doubt) [Compound 152, (1R,2S,5S)—N-(1-Cyano-2-(6-methyl-2-oxo-1,2-dihydroquinolin-3-yl)ethyl)-3-((S)-3,3-dimethyl-2-((5-methylthiazol-2-yl)amino)butanoyl)-6,6-dimethyl-3-azabicyclo[3.1.0]hexane-2-carboxamide], which IC50 is on record?
A: 100 to 250 nM

Q: With CC(C)(C)[C@H](NC(=O)C(F)(F)F)C(=O)N1C[C@H]2C([C@H]1C(=O)NC(C#N)Cc1cc3c([nH]c1=O)CCOC3)C2(C)C (stereo in doubt) [Compound 123, (1R,2S,5S)—N-(1-Cyano-2-(2-oxo-1,5,7,8-tetrahydro-2H-pyrano[4,3-b]pyridine-3-yl)ethyl)-3-((S)-3,3-dimethyl-2-(2,2,2-trifluoroacetamido)butanoyl)-6,6-dimethyl-3-azabicyclo[3.1.0]hexane-2-carboxamide] as the compound, how does the IC50 read?
A: 100 to 250 nM

Q: Cc1ccc2[nH]c(=O)c(C[C@@H](C#N)NC(=O)[C@@H]3[C@H]4[C@H](CN3C(=O)[C@@H](NC(=O)C(F)(F)F)C(C)(C)C)C4(C)C)cc2c1 (stereo in doubt) [Compound 107, (1R,2S,5S)—N-(1-Cyano-2-(6-methyl-2-oxo-1,2-dihydroquinolin-3-yl)ethyl)-3-((S)-3,3-dimethyl-2-(2,2,2-trifluoroacetamido)butanoyl)-6,6-dimethyl-3-azabicyclo[3.1.0]hexane-2-carboxamide] was tested. Which IC50 did it give?
A: 50 to 100 nM

Q: For Cc1ccc2c(c1)CC(C[C@@H](C#N)NC(=O)[C@@H]1[C@@H]3[C@H](CN1C(=O)[C@@H](NC(=O)C(F)(F)F)C(C)(C)C)C3(C)C)C(=O)N2 (stereo partly drawn) [Compound 120, (1R,2S,5S)—N-[(1S)-1-Cyano-2-(6-methyl-2-oxo-3,4-dihydro-1H-quinolin-3-yl)ethyl]-3-[(2S)-3,3-dimethyl-2-[(2,2,2-trifluoroacetyl)amino]butanoyl]-6,6-dimethyl-3-azabicyclo[3.1.0]hexane-2-carboxamide], which IC50 is on record?
A: < 50 nM

Q: With CC(C)(C)[C@H](NS(C)(=O)=O)C(=O)N1C[C@H]2C([C@H]1C(=O)NC(C#N)Cc1cc3c([nH]c1=O)CCC(F)(F)C3)C2(C)C (stereo in doubt) [Compound 126, (1R,2S,5S)—N-(1-Cyano-2-(6,6-difluoro-2-oxo-1,2,5,6,7,8-hexahydroquinolin-3-yl)ethyl)-3-((S)-3,3-dimethyl-2-(methylsulfonamido)butanoyl)-6,6-dimethyl-3-azabicyclo[3.1.0]hexane-2-carboxamide] as the compound, how does the IC50 read?
A: 100 to 250 nM

Q: For Cc1ccc2[nH]c(=O)c(C[C@H](C#N)NC(=O)C3C4C(CN3C(=O)[C@H](NS(=O)(=O)C3CC3)C(C)(C)C)C4(C)C)cc2c1 (stereo in doubt) [Compound 203, (1S)—N-[(1R)-1-Cyano-2-(6-methyl-2-oxo-1H-quinolin-3-yl)ethyl]-3-[(2R)-2-(cyclopropylsulfonylamino)-3,3-dimethyl-butanoyl]-6,6-dimethyl-3-azabicyclo[3.1.0]hexane-2-carboxamide], which IC50 is on record?
A: 50 to 100 nM

Q: With Cc1ccc2[nH]c(=O)c(C[C@@H](C#N)NC(=O)[C@H](Cc3ccccc3)N(C)C(=O)[C@@H](NC(=O)C(F)(F)F)C(C)(C)C)cc2c1 [Compound 206, (2S)—N-[(1S)-1-benzyl-2-[[(1S)-1-cyano-2-(6-methyl-2-oxo-1H-quinolin-3-yl)ethyl]amino]-2-oxo-ethyl]-N,3,3-trimethyl-2-[(2,2,2-trifluoroacetyl)amino]butanamide] as the compound, how does the IC50 read?
A: ≥ 1000 nM

Q: CC(C)(C)[C@H](NC(=O)C(F)(F)F)C(=O)N1C[C@H]2C([C@H]1C(=O)NC(C#N)Cc1cc3ccc(Cl)cc3[nH]c1=O)C2(C)C (stereo in doubt) [Compound 105, (1R,2S,5S)—N-(2-(7-Chloro-2-oxo-1,2-dihydroquinolin-3-yl)-1-cyanoethyl)-3-((S)-3,3-dimethyl-2-(2,2,2-trifluoroacetamido)butanoyl)-6,6-dimethyl-3-azabicyclo[3.1.0]hexane-2-carboxamide] was tested. Which IC50 did it give?
A: 50 to 100 nM

same assay, conditions: Table B; comparison with known compound K; read-out: IC50, nM (3CL Protease enzymatic activity, comparative data)

Q: With CC(C)(C)[C@H](NC(=O)C(F)(F)F)C(=O)N1C[C@H]2C([C@H]1C(=O)NC(C#N)Cc1cc3cc(Cl)ccc3[nH]c1=O)C2(C)C (stereo in doubt) [Compound 104, (1R,2S,5S)—N-(2-(6-Chloro-2-oxo-1,2-dihydroquinolin-3-yl)-1-cyanoethyl)-3-((S)-3,3-dimethyl-2-(2,2,2-trifluoroacetamido)butanoyl)-6,6-dimethyl-3-azabicyclo[3.1.0]hexane-2-carboxamide] as the compound, how does the IC50 read?
A: 89 nM

Q: For CC(C)(C)[C@H](NC(=O)C(F)(F)F)C(=O)N1C[C@H]2C([C@H]1C(=O)NC(C#N)Cc1cc3c([nH]c1=O)CCOC3)C2(C)C (stereo in doubt) [Compound 123, (1R,2S,5S)—N-(1-Cyano-2-(2-oxo-1,5,7,8-tetrahydro-2H-pyrano[4,3-b]pyridine-3-yl)ethyl)-3-((S)-3,3-dimethyl-2-(2,2,2-trifluoroacetamido)butanoyl)-6,6-dimethyl-3-azabicyclo[3.1.0]hexane-2-carboxamide], which IC50 is on record?
A: 180 nM

Reference: US20260015337A1 (Trawsfynydd Therapeutics, Inc., priority 2022, published 2026)
